Measurements as given in patent publication US5236937A, “Pyridinyl compounds which are useful as angiotensin II antagonists” (Imperial Chemical Industries PLC, priority 1991, dated 1993).

Test system: angiotensin II-induced pressor responses
Test: Test C: inhibition of angiotensin II-induced pressor responses in terminally-anaesthetised or conscious rats
Assay type: in vivo
Details: iv, rat, i.v. administration
Text: The antagonism of one or more of the physiological actions of AII and, in particular, the antagonism of the interaction of AII with the receptors which mediate its effects on a target tissue, may be assessed using one or more of the following, routine laboratory procedures: Test C: This in vivo test involves using terminally-anaesthetised or conscious rats in which an arterial catheter has been implanted under anaesthesia for the measurement of changes in blood pressure. The AII antagonistic effects of the test compound following oral or parenteral administration, are assessed against angiotensin II-induced pressor responses. To ensure that the effect is specific, the effect of the test compound on vasopressin-induced pressor responses may also be determined in the same preparation.

## Cc1cc(NCc2ccc(-c3ccccc3-c3nnn[nH]3)cc2)c(I)c(C)n1.Cl [Example 1, 2,6-dimethyl-3-iodo-4-[(2'-(1H-tetrazol-5-yl)biphenyl-4-yl)methylamino]pyridine hydrochloride]
  ED50: 0.047 mg/kg
